Results reported in ChEMBL document CHEMBL1157539, “Thousands of chemical starting points for antimalarial lead identification” (Nature, 2010).

Tested on: Plasmodium falciparum
Experiment: GSK_TCMDC: Inhibition of Plasmodium falciparum 3D7 in whole erythrocytes, using parasite LDH activity as an index of growth.
Assay type: functional, organism-based
Details: Plasmodium falciparum, 3D7

Structure (SMILES) | XC50
CS(=O)(=O)c1ccccc1CNC(=O)c1cccc(-c2ccc(-c3nc4cc(C(F)(F)F)ccc4[nH]3)cc2)c1 | 809 nM
Nc1c(C(=O)NCCCCN2CCN(c3nsc4ccccc34)CC2)sc2ccccc12 | 1320 nM
CCCN(Cc1ccc(OCC)cc1)Cc1cc(=O)c2cc(Cl)ccc2[nH]1 | 1260 nM
O=C(C=Cc1ccc(-c2nc3ccccc3[nH]2)cc1)NC1CCN(Cc2ccccc2)CC1 | 740 nM
CCCc1ccc(NC(=O)c2ccc(CN3CCCN(Cc4cccc(O)c4)CC3)cc2)cc1 | 396 nM
COc1ccc2nc(C)cc(N/N=C/c3ccc([N+](=O)[O-])cc3)c2c1 | 695 nM
O=C(/C=C/c1ccc(Cl)c(Cl)c1)N1CCC(CN2CCC(Cc3c[nH]c4ccccc34)CC2)CC1 | 674 nM
Cc1[nH]c(C)c(-c2cccc(-c3ccc(OC(F)(F)F)cc3)c2)c(=O)c1Br | 410 nM
C/C=C1\CN2CC[C@H]1C[C@H]2[C@H](O)c1ccnc2ccc(O)cc12 | 601 nM
CCCCCCNC(=O)C1Cc2c([nH]c3ccc(Br)cc23)C2(CCN(CCc3ccccc3)CC2)N1 (centres undefined) | 788 nM
O=C(/C=C/c1ccc(C(F)(F)F)cc1)NCCCCCN1CCC(c2c[nH]c3ccccc23)CC1 | 683 nM
CCCCCCNc1cc(C)nc2ccc(OC)cc12 | 552 nM
Fc1cccc2sc(Nc3nc(-c4ccccn4)cs3)nc12 | 906 nM
O=C(O)C[C@H](NC(=O)c1cc(-c2ccc3c(c2)OCO3)no1)C(=O)O.O=C(O)C[C@H](NC(=O)c1conc1-c1ccc2c(c1)OCO2)C(=O)O | 194 nM
CC(C)c1ccc(-c2noc(SCC(=O)N3CCCCC3C)n2)cc1 (centres undefined) | 1670 nM
O=C(NC1CC1)c1cnc(N2CCC(c3ccccc3)CC2)c(Cl)c1 | 851 nM
CCc1ccc(-c2cnc(N)c3cc(-c4ccnc(N)n4)ccc23)cc1 | 1350 nM
CN(C)CCCN1C(=O)c2[nH]nc(-c3ccc(Cl)cc3O)c2C1c1ccc(Cl)cc1 (centres undefined) | 758 nM
CCNc1cc(C(=O)N[C@@H](Cc2ccccc2)[C@H](O)CNC(CC)c2cccc(Cl)c2)cc(N2CCCCS2(=O)=O)c1 (some centres undefined) | 51.7 nM
COc1ccc(OCCON)cc1 | 201 nM
C[C@H](Cc1ccc(OCCCCCCOc2ccc(C[C@@H](C)N[C@H](C)c3ccccc3)cc2)cc1)NC[C@H](O)c1cccc(Cl)c1 | 241 nM
O=C(Nc1ccccc1Cc1ccccc1)c1ccccc1C(F)(F)F | 782 nM
COC(=O)c1ccc2nc(-c3ccc(C(=O)NC4CCN(Cc5ccccc5)CC4)s3)[nH]c2c1 | 688 nM
Cc1cc2c(cc1C(F)(F)F)N(C(=O)Nc1cnc(OCCN(C)C)c(C(F)(F)F)c1)CC2 | 966 nM

Structure (SMILES) | XC50
CCOc1ccccc1CNc1nccc(NCc2ccc(Cl)cc2Cl)n1 | 1100 nM
O=C(NCC1CCN(CCN2CCc3ccc4c(c3C2)OCO4)CC1)c1ccc(-c2ccc(C(F)(F)F)cc2)cc1 | 861 nM
CCCc1cc(=O)[nH]c(-n2nc(C)cc2NC(=O)CC(c2ccccc2)c2ccccc2)n1 | 618 nM
CCc1ccc(CN2CCC(CNC(=O)c3cc(-c4cccc(Cl)c4)cs3)C2)cc1 (centres undefined) | 1110 nM
Cc1ccccc1C1CCN(C2CCC(NC(=O)/C=C/c3ccc(C#N)cc3)CC2)CC1 (centres undefined) | 1170 nM
COc1cc(/C=C/C(=O)NCC(CCNc2cc(=O)c3ccccc3[nH]2)NCc2cc(Br)cc(Br)c2)cc(OC)c1 (centres undefined) | 915 nM
CCCC(=O)NC(c1ccc(C(C)C)cc1)c1ccc2cccnc2c1O (centres undefined) | 934 nM
CC1(C)NC(N)=NC(=N)N1OCc1cccs1 | 3.2 nM
Cc1cccc2nc(-c3ccc(-c4ccc(CN5CCCCC5CO)cc4)cc3)[nH]c12 (centres undefined) | 808 nM
CCCCN(CCCC)CCCCNc1c2ccccc2nc2ccccc12 | 148 nM
CCCCNC(=O)c1[nH]c2c(NC(=O)COc3ccccc3)cccc2c1-c1cccc(NC(=O)C(N)CO)c1 (centres undefined) | 852 nM
COc1ccc(C2CC(=O)C3=C(C2)NC(C)=C(C(=O)OC2CCCC2)C3c2ccc(O)cc2)cc1OC (centres undefined) | 565 nM
Cc1cc(=NN=Cc2ccccn2)c2cc(C(F)(F)F)ccc2[nH]1 | 621 nM
CCN1CCN(CCCNc2c3ccc(Cl)cc3nc3ccc(O)cc23)CC1 | 566 nM
Cc1nc(-c2cccc(Nc3nccc(NCC(O)c4cccc(F)c4)n3)c2)cs1 (centres undefined) | 699 nM
COc1ccc(Cn2c(Nc3cccc(C(F)(F)F)c3)nc3cc(C(=O)NCCCN(C)C)ccc32)cc1Cl | 913 nM
CCOc1c(CNCCCNc2cc(O)c3ccccc3n2)cc(I)cc1OC | 1170 nM
COc1ccc(NS(=O)(=O)c2ccccc2Br)cc1N1CCN(C)CC1 | 967 nM
COc1ccc(-c2ccccc2OCCCNc2nc(NCCc3ccc(O)cc3)nc(N3CCNCC3)n2)cc1 | 785 nM
Cc1ccc(NC(=O)NCCCCCN2CCC(c3c[nH]c4ccccc34)CC2)cc1I | 815 nM
CC(=O)Nc1ccc(CN2CCC(NC(=O)c3ccc(-c4ccc(N(C)C)cc4)s3)CC2)cc1 | 869 nM
CC(=O)NCCCCC1NC2(C(=O)N(Cc3ccc(C(C)(C)C)cc3)c3ccccc32)C2C(=O)N(C3CCCCC3)C(=O)C12 (centres undefined) | 788 nM
Cc1nc2ccc(S(=O)(=O)Nc3ccc(C(=O)N[C@@H](CCC(=O)O)C(=O)O)cc3)cc2c(=O)[nH]1 | 1010 nM
CCc1cc(COc2ccc(CNCCC(C)C)cc2I)c(OCc2ccccc2)c(COc2ccc(CNCCC(C)C)cc2I)c1 | 1110 nM

Structure (SMILES) | XC50
Cc1cc(NC2CCN(CC3CCCCC3)C2)nc(Nc2ccc(Br)cc2)n1 (centres undefined) | 566 nM
CN(C)Cc1cccc(-c2ccc(NC(=O)c3ccc4c(=O)n(CCN5CCCCC5)cnc4c3)cc2)c1 | 650 nM
O=C(Nc1ccccc1F)NC1CCN(c2ccnc(Nc3ccc(F)cc3)n2)C1 (centres undefined) | 854 nM
CC(C)(C)c1nn(-c2ccccc2)c2[nH]c(=O)c(CNCCc3ccccc3)cc12 | 866 nM
O=C(NCc1cccc(Cl)c1)c1ccc(CNC2CCN(Cc3ccccc3)CC2)cc1 | 884 nM
CCCNC(=O)C1Cc2c([nH]c3ccc(Br)cc23)C2(CCN(CCc3ccccc3)CC2)N1 (centres undefined) | 678 nM
CCC[C@@H](C(=O)NCCc1cccc(OC)c1)N1C(=O)c2c(ccc(OC)c2OC)C1C(=O)Nc1c(C)cccc1C (some centres undefined) | 808 nM
CCOc1ccc(OCC)c(N2CCN(CCCCNC(=O)c3ccc(NC(=O)c4ccc(Cl)cc4)cc3)CC2)c1 | 587 nM
CCc1ccc2c(c1O)CCN(C)C2Cc1ccccc1Cl (centres undefined) | 251 nM
COC(=O)c1c(C#N)c(OC)cc(O)c1CSC[C@@H](CN1CCCCC1)Nc1nc(-c2ccc([N+](=O)[O-])cc2)cs1 | 1270 nM
CC[C@H]1CN2CC[C@H]1C[C@H]2[C@H](O)c1cc(N2CCCC(C(=O)N(CC)CC)C2)nc2ccc(OC)cc12 (some centres undefined) | 73.1 nM
CC(O)C1CCCCN1C(=O)c1cccc(-c2ccc(-c3nc4ccccc4[nH]3)s2)c1 (centres undefined) | 798 nM
COc1ccc(NC(=O)Nc2ccc(-c3cccc(-c4nc5ccccc5[nH]4)c3)cc2)cc1 | 764 nM
Cc1nc(C)c(CC(=O)Nc2ccc(-c3cccc(-c4nc5cc(C(F)(F)F)ccc5[nH]4)c3)cc2)s1 | 925 nM
CC(C)OCCCNC(=O)c1nc(-c2cccc(C(F)(F)F)c2)sc1C(C)C | 1160 nM
N=c1n(Cc2ccc(Cl)cc2)c2ccccc2n1CC(O)c1ccc(Cl)c(Cl)c1 (centres undefined) | 677 nM
O=C(NCc1cccc(F)c1)Nc1cccc(-c2ccc(-c3nc4cc(F)ccc4[nH]3)cc2)c1 | 1050 nM
Cc1ccc(C(=O)N2CCc3cc4nccc(N5CCN6CCC[C@H]6C5)c4cc32)cc1 | 1100 nM
COCCN1CCC(N(CC2(O)CCN(c3ccc(C(F)(F)F)cc3)CC2)C(=O)Cn2c(SCc3cccc(F)c3F)cc(=O)c3ccccc32)CC1 | 807 nM
C=Cc1ccccc1C1(O)CCN(CCCCNC(=O)c2ccc(-c3ccc(C#N)cc3)cc2)CC1 | 518 nM
Cc1cc(NCCC(=O)NCCOc2ccccc2)nc(Nc2ccccc2)n1 | 1060 nM
N=C1NC(=O)C(=Cc2cn(-c3ccccc3)nc2-c2cccc(S(=O)(=O)N3CCCC3)c2)S1 | 1140 nM
N=C(N)c1cccc(OCCCOc2cccc(NC(=O)Nc3ccc([N+](=O)[O-])cc3)c2)c1 | 862 nM
Cc1nnsc1C(=O)Nc1cccc(-c2cccc(-c3nc4ccccc4[nH]3)c2)c1 | 437 nM

Structure (SMILES) | XC50
Cc1cc(C(F)(F)F)n2nc(C3CCN(Cc4cc(C)c(O)c(C)c4)C3)cc2n1 (centres undefined) | 758 nM
FC(F)(F)c1cccc(Nc2nc3ccccc3nc2Nc2cccc(C(F)(F)F)c2)c1 | 137 nM
O=C(Nc1ccc(Cl)c(C(F)(F)F)c1)N[C@H]1CCN(CCCCCNC(=O)C2CC2c2ccc(Cl)c(Cl)c2)C1 (some centres undefined) | 1080 nM
COc1cc2nc(NCCc3ccccc3)nc(NCc3cnn(C)c3C)c2cc1OC | 711 nM
Cc1cc(F)ccc1Nc1nc(N(C)c2ccccc2)c2cccc(OCCO)c2n1 | 795 nM
CCCCCCN1CCCN(Cc2ccc(C(=O)Nc3ccc(C(C)(C)C)cc3)cc2)CC1 | 744 nM
Cc1[nH]c2ccccc2c1C1CCN(CCCCNC(=O)c2ccc(-c3ccc(C#N)cc3)cc2)CC1 | 704 nM
COc1ccc(C(=O)C2CC2CN2CC=C(c3c[nH]c4ccccc34)CC2)cc1 (centres undefined) | 532 nM
CN1CCC(Oc2ccc(CN3CC[C@H](NC(=O)c4cccc(C#N)c4)C3)c3ccccc23)C1 (some centres undefined) | 804 nM
O=C(NCc1cccs1)[C@H](Cc1ccccc1)Nc1ccnc(NCC2CCCCC2)n1 | 1050 nM
O=c1[nH]ccc2nc(N[C@@H]3CCNC3)nc(Nc3cc(Cl)cc(Cl)c3)c12 | 738 nM
c1ccc(Oc2ccc(Nc3ccnc4cc(-c5cccc(CN6CCOCC6)c5)ccc34)cc2)cc1 | 336 nM
Cc1cc(OCCCN2CCN(CCN3CCOCC3)CC2)ccc1NC(=O)COc1ccc(Cl)cc1C(=O)c1cc(Cl)cc(C#N)c1 | 697 nM
O=C(C=Cc1ccc(F)c(Br)c1)N1CCC(CN2CCC(c3c[nH]c4ccccc34)CC2)CC1 | 745 nM
Cc1cc(-c2ccc3occ(CCN)c3c2)cnc1N | 877 nM
Cc1ccc(-c2nnc(Nc3ccc(CC(N)=O)cc3)c3ccccc23)cc1S(=O)(=O)NCC1CCCO1 (centres undefined) | 791 nM
COc1cc2nc(-c3ccccc3)nc(N3CCN(CC(=O)N4CCCC4)CC3)c2cc1OC | 1130 nM
CS(=O)(=O)NCCCNCc1ccc(-c2ccc(-c3nc4cc(F)ccc4[nH]3)s2)cc1 | 811 nM
Cc1ccc(NC(=O)NC2CCN(CCC(NC(=O)Cc3ccccc3)c3ccc(Cl)c(Cl)c3)CC2)cc1 (centres undefined) | 619 nM
O=C(Nc1ccc(OC2CCN(Cc3ccsc3)C2)c(Cl)c1)c1ccc(F)cc1 (centres undefined) | 943 nM
COC(=O)c1cccc(N2CCN(CCCNC(=O)/C(=C/C=C/c3cc4cc(Cl)c(Cl)cc4[nH]3)OC)CC2)c1 | 667 nM
Cc1noc(-c2ccc(O)cc2O)c1-c1ccc2c(c1)OCCCO2 | 892 nM
